Laboratory results reported in US12516086B2 (SRI International, priority 2021, dated 2026).
Ends that are not written are not given here.

Experiments:
[1] = system: HT22 cells (mouse hippocampal neuronal cell line); assay: Peptide uptake by quantitative flow cytometry in HT22 cells; assay type: cell-based; settings: for Uptake into HT22 cells versus concentration (in words): 1 h at 37° C.
Method: FIG. 26A. […] FIG. 26B. […] FIG. 26C.
(§1) It must be on the tetrameric core to function. […] The number of molecules of peptide internalized per cell was determined by a quantitative flow cytometry assay. […] MGS_NOE3_V1-4 and MGS_NOE3_V2-4 display a 5-6-fold specificity for neurons over astrocytes and 3-fold specificity compared to microglia. […] Incubations were performed for 1 h at 37° C. […] Uptake was determined by flow cytometry assay.
(§2) Peptide concentration and incubation time as well as cell line used is indicated in each figure. […] Cells were removed by trypsinization. Flow cytometry was performed on a BD FACSCelesta, and data were analyzed using FlowJo_v10.8. Cells were gated based on the forward and side scatter to include only viable cells and a minimum of 10,000 events were counted. For absolute peptide uptake per cell, a standard curve was generated using Quantum™ Alexa Fluor 647 microspheres. MFI was determined at 50% at peak height. Molecules internalized per cell were determined by the standard curve relating MESF to MFI and divided by the number dye molecules/MGS conjugate. GraphPad Prism® was used for non-linear regression curve fitting to calculate an EC50.

[2] = human serum (Innovative Research, H6430); settings: 37° C., up to 24 hours
HT-22 cells = assay: Receptor recycling: MGS_NOE3_V2-4 uptake with chloroquine or cycloheximide; assay type: cell-based, mouse; settings: 100 nM MGS_NOE3_V2-4; 100 μM chloroquine or 250 μM cycloheximide; up to 24 h
Method: The cellular receptor for MGS_NOE3_V2-4 is recycled (FIG. 22). HT-22 cells were incubated with culture medium containing 100 nM MGS_NOE3_V2-4 in the presence of 100 μM chloroquine or 250 μM cycloheximide for the indicated times. The cellular uptake was analyzed by flow cytometry. […] New protein synthesis is not required for continued uptake of MGS_NOE3_V2-4. Endosomal acidification is required for continued uptake of MGS_NOE3_V2-4. MGS_NOE3_V2-4 uptake continues with time.
For experiments to determine if the cellular receptor is recycled, cells were treated with peptide in the presence of 100 μM chloroquine or 250 μM cycloheximide. At the indicated time points, the cells were washed and analyzed as described above.

[3] = system: HT22 and GT1/7 neuronal cell lines vs CTX TNA2 astrocytes and HMC3 microglia; assay: Uptake of MGS_NOE3 tetramers across cell lines by quantitative flow cytometry; assay type: cell-based, mouse, rat, human; settings: 200 nM, 1 h
Method: as §1, §2

[4] = rat, in vivo
Method: Coronal slices are 1 mm and arranged from the front (upper left) to back (lower right).
Coronal slices of 1 mm thickness are prepared using a brain matrix. The slices are imaged on an Odyssey Imager collecting fluorescent signal at 800 nm.

[5] = rat, in vivo; remark: listed apart in the source
Method: MTS variants labeled with the near infrared dye Alexa Fluor 750 were injected into the tail vein of Sprague Dawley rats at 1 μg MTS/kg rat body weight. At the indicated time, CSF was isolated via capillary puncture of the cisterna magna. […] To assure the fatty acid is not driving the transport into the CNS, a control peptide scMTS3_V2-2 which contains the MTS3 amino acid composition but with a scrambled sequence was lipidated.
The MTS peptide directly conjugated to Alexa Fluor 750 dye (1 μg/g body weight) is injected via lateral tail vein into a Sprague-Dawley Rat and allowed to circulate for the indicated time (20 min, 1 h 6 h, 24 h). The animal is anesthetized 10 mins prior to the end of the time point and 2 mL 200× Heparinized Saline is injected intraperitoneally. To collect the CSF, a blunt dissection of the back of the neck is performed to expose the clear dura mater covering the cisterna magna. Using a glass micropipette, CSF is aspirated from the cisterna magna at the indicated time point. Following CSF collection, a transcardial perfusion is performed by flushing with 500 mL ice cold 1× PBS containing heparin to remove any blood from the body. The brain and other tissues are isolated. The brain is homogenized using a Dounce homogenizer in lysis buffer (30 mM Tris-HCl, pH 8.0 0.05% Triton X-100) and the soluble fraction collected. […]

[6] = target: Recombinant human transferrin receptor (Homo sapiens, UniProt P02786); assay: ELISA binding to plate-absorbed transferrin receptor; settings: receptor at 1 μg/mL, biotinylated peptide at varying concentrations, 1 h
Recombinant human transferrin receptor, sequence (P02786 whole entry): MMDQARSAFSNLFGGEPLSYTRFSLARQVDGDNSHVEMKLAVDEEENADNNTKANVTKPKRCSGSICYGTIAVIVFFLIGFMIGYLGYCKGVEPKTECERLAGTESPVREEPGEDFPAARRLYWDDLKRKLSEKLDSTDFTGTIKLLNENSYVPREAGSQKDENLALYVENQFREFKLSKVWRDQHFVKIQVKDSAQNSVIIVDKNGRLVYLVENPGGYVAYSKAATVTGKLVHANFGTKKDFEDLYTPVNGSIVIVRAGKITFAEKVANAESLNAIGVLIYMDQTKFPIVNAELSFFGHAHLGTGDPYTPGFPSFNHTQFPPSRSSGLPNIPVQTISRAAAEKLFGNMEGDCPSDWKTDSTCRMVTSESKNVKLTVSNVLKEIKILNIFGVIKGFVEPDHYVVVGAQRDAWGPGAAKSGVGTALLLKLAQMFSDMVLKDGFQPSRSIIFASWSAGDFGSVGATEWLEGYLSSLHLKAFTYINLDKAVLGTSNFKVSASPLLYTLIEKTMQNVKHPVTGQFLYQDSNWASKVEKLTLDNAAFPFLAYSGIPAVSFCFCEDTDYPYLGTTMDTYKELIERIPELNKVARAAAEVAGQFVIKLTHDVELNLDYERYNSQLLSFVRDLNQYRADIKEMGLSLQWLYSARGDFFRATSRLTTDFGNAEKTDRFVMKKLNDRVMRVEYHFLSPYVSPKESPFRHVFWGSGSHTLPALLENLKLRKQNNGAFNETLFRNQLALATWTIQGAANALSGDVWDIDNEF
Method: Recombinant human transferrin receptor was absorbed onto high binding ELISA plates at 1 μg/mL. […] Retained MTS peptide was detected using streptavidin-HRP and TMB reagent. The absorbance was measured at 450 nm and is proportional to the amount of MTS peptide captured by transferrin receptor. […] By comparison, MTS3_V1-2 and a scrambled control peptide of MTS2_V1-2 show no binding. The binding affinity of MTS2_V1-2 for transferrin receptor was determined by biolayer interferometry on a OctetRED 96 system. The biotinylated MTS2_V1-2 peptide was captured on streptavidin probe. The kon and koff rate were determined at various concentrations of human or mouse transferrin receptor allowing for determination of the dissociation constant.

[7] = system: HMC3 cells (human microglia cell line); assay: Peptide uptake by quantitative flow cytometry in HMC3 cells; assay type: cell-based
Method: Under both cell states, an average of ˜60,000 molecules of MGS2_V4-2 were internalized. […] All cell lines were incubated with MGS2_V4-2 at 25 nM for 1 hour at 37° C.
Cells were incubated at the indicated concentration of each peptide construct that had been labeled with Alexa Fluor 647. After 1 h incubation at 37° C., uptake was determined by quantitative flow cytometry. […] Thus, uptake is mediated by the MGS not the MTS.
However, binding was rescued by using the tetrameric MGS2_V4-4 as the targeting peptide in this multifunctional chimera (shown in panel A).
as §2
HMC3 cells were activated with interferon-gamma (IFN-γ) (10 ng/ml, 24 h). Resting phenotype was characterized by expression of IBA1, and endotoxin receptor CD14, but negative for the astrocyte marker GFAP. […] In Vivo MTS and MTS-MGS Targeting Experiments

[8] = Serum stability (RP-HPLC of Alexa Fluor 647 labeled peptide); assay type: in vitro ADME; settings: 37° C., 24 h
Method: MGS2_V4-2 labeled with Alex Fluor 647 was incubated in human serum at 37° C. At the indicated times, an aliquot was removed, serum proteins were precipitated, and the resultant supernatant was analyzed by reverse phase HPLC monitoring the absorbance at 650 nm. Chromatograms for each time point are shown. Intact peptide has a retention time at 11.864. […] Peaks were integrated to determine the percentage of intact peptide as well as the amount of observed degradation product. At 24 h, >75% of the MGS2_V4-2 is still intact. Electrospray mass spectrometry was performed on the peptide product arising at the 10.005 min retention time. The mass of this new species corresponds to the loss of the 3 amino acids on both branches of MGS2_V4-2.
The concentration of a solution of peptide conjugated with dye (Alexa Fluor 647) was determine by absorbance at 651 nm and ˜14 nmol of peptide was lyophilized. The lyophilized peptide powder was dissolved in 400 μL of human serum (Innovative Research, H6430) to achieve a 35 μM solution. The sample was incubated at 37° C. and shaken. For each time point (0, 1, 2, 4, 20 and 24 hours), a 50 μL aliquot was removed from the reaction and 100 μL of absolute ethanol was added to precipitate serum proteins. Samples were incubated on ice for 15 mins before being centrifuged at 12,000 rpm for 5 mins. […] Finally, 100 μL of each sample were analyzed by analysis RP-HPLC.

brain cells = assay: Brain cell association after intrathecal injection, flow cytometry; assay type: in vivo, C57BL/6 mouse; settings: Alexa Fluor 647 label, 1 hr circulation, compared to naïve animals
From the text: (A) Gating strategy for total brain cells vs debris. (B) Gating strategy excluding cell doublets. FIG. 24C indicates the fluorescent intensity of MGS_NOE3-V2-4 internalized into brain cells following intrathecal injection compared to naïve animals.
MGS_NOE3-V2-4 was labeled with Alexa Fluor 647 and injected intrathecally in a C57BL/6 mouse. After the peptide circulated for 1 hr, the animal was euthanized, and the brain tissue was harvested. The whole brain was subsequently dissociated using the Miltenyi Biotec gentleMACS Octo Dissociator. The number of MGS_NOE3_V2-4 molecules internalized into brain cells were analyzed by flow cytometry (BD FACSCelesta).
Alternatively, all CNS cells were analyzed as a mixture by dissociating the brain using the Miltenyi Biotec gentleMACS Octo Dissociator. No enrichment for a CNS subpopulation was performed and cells were directly analyzed by flow cytometry. Gating was used to eliminate cell debris and cell doublets.

HT22 cells = assay: Confocal live cell imaging of internalization into HT22 cells; settings: 200 nM, 37° C., Alexa Fluor 647
Method: Cells were incubated with 200 nM, and the average uptake per cell was determined. […] Alexa Fluor 488 conjugated wheat germ agglutinin was used to label the cell membrane and Hoechst 33342 was used to stain the nucleus. Live cell imaging was performed, and representative images are shown.
AlexaFluor488 conjugated wheat germ agglutinin was used to label the cell membrane and Hoechst 33342 was used to stain the nucleus. Live cell imaging was performed, and representative images are shown.
The test cells were seeded in 35 mm confocal microscopy dish 24 hours prior to treatment. The test peptides labeled with Alexa Fluor 647 were incubated on cells in media for the indicated time at 37° C. After incubation, the cells were washed 3 times with PBS, 2 times with 0.1 M HCl-glycine pH 2.2 in 0.9% NaCl and 1 time with PBS. Alexa Fluor 488 conjugated wheat germ agglutinin was used to label the cell membrane and Hoechst 33342 was used to stain the nucleus. Microscopy was acquired on a Zeiss LSM 700 with a Pln Apo 63×/1.4 oil DIC III objective. Images were processed using Zen software.
For peptides that were biotinylated instead of direct labeling with Alexa Fluor 647, the peptide-SA-AF647 conjugate was prepared by mixing Alexa Fluor™ 647 conjugated streptavidin and biotinylated peptide with an equal molecular ratio in 100 μl PBS for 30 minutes at room temperature. […]

MGS_NOE3_V2-2 (Ac-GFHNVYPYTWGGFSDIDLMADEI; also: dimer)
Uptake into HT22 cells versus concentration (in words) [1]: no uptake was observed on HT22 cells

Ac-YAAWPASGAWT
fragment found [2]: loss of the 3 amino acids on both branches of MGS2_V4-2, 1 h

C[C@@H]1C[C@@H]([C@H](O)CC2CC(=O)NC(=O)C2)C(=O)[C@@H](C)C1 [Cycloheximide]
Effect on MGS_NOE3_V2-4 uptake (HT-22 cells): no impact on MGS_NOE3_V2-4 uptake

MGS_NOE3_V1-4: tetrameric version of GFHNVYPYTWGGFSDIDLMADEI (SEQ ID NO:1) (also: tetrameric construct on a core linker)
Specificity for neurons compared to microglia [3]: 3 fold

MTS3_V2-2 (Ac-SKETYSMNAQRQHERS; also: dimer, C16 fatty acid)
Brain uptake by fluorescent imaging of 1 mm coronal slices [4]: increased brain uptake compared to MTS3_V1-2 at all time points
Transport into the brain parenchyma, fold higher than nonmodified MTS3_V1-2 [5]: 10-12 fold
Transport into the brain parenchyma, fold higher than scrambled control scMTS3_V2-2 [5]: 17-31 fold

dimer version of MTS2_V1, Ac-FPSWTSKNQQWTNQRQ (also: dimer) [MTS2_V1-2]
Binding to transferrin receptor in ELISA (absorbance at 450 nm) [6]: binds to human transferrin in a concentration dependent manner which saturates at higher concentrations

CCN(CC)CCCC(C)Nc1ccnc2cc(Cl)ccc12 (stereo not shown) [chloroquine]
Effect on MGS_NOE3_V2-4 uptake (HT-22 cells): greatly reduces uptake

MTS3_V1-2 (Ac-SKETYSMNAQRQHERS; also: dimer)
Binding to transferrin receptor in ELISA (absorbance at 450 nm) [6]: no binding
Cellular uptake in HMC3 cells (in words) ([7]; 1 h at 37° C., quantitative flow cytometry): no significant cellular uptake at any of the concentrations tested

Ac-GFHNVYPYTWGGFSDIDLMADEI [MGS_NOE3_V2]
Uptake into HT22 cells versus concentration (in words) [1]: no uptake was observed on HT22 cells

dimeric form of MGS2_V4, Ac-YAAWPASGAWT (SEQ ID NO:8) [MGS2_V4-2]
Intact peptide in human serum [8]: > 75%
Uptake in HMC3 cells versus other CNS cell lines (specificity) ([7]; 25 nM, 1 hour at 37° C., versus neuronal cells, Schwann cell, astrocytes): significantly higher in HMC3 cells than other cells of the central nervous system
Molecules internalized (average) ([7]; HMC3 cells of resting or activated phenotype, 1 hour): ~60,000 molecules
EC50 ([7]; HMC3 cells, 1 h at 37° C., read-out: EC50 (half maximal uptake)): 7.3 nM

MGS_NOE3_V2-4: tetrameric version of Ac-GFHNVYPYTWGGFSDIDLMADEI (SEQ ID NO:5) (also: tetrameric construct)
Association with brain cells after intrathecal injection (brain cells): associated with cells in the CNS after intrathecal injection
Uptake into HT22 cells over time (in words) ([1]; 200 nM, 37° C.): increases over time
Uptake into HT22 cells versus concentration (in words) [1]: increases with increasing concentration
Intracellular concentration reached ([1]; uptake to at least 24 H): ≈ 1 μM
Specificity for neurons compared to microglia [3]: 3 fold
Internalization into HT22 cells by confocal live cell imaging (HT22 cells): internalized into neuronal cells
